Measured values reported in PMC9525273 (Nature Communications, 2022).
Values joined by “and” are separate entries in the source; they are usually repeats but may differ in a detail not shown here. Identical values can stand only once. Like-named read-outs stand apart in the source and are kept apart here.

Columns and labels:
Assay in all cases: P. falciparum proliferation assay (72 h, flow cytometry, SYBR Green I/MitoTracker)
Format in all cases: cell-based, Plasmodium falciparum
NF54^CTL parasites = conditions: for FC (IC50) / FC (IC90): NF54CTL compared to NF54WT
Method: (§1) For the NF54-based lines and Dd2-B2-PfATP4^G358S and its parent, assays were initiated with cultures containing predominantly ring-stage parasites with a parasitaemia of 0.3% and a haematocrit of 1%. All assays using NF54 were performed in culture media containing 10% O + human serum. The duration of the assays was 72 h and the concentration of DMSO was <0.5% (v/v). Serial dilutions of the test compounds were performed using a Tecan D300e digital dispenser, with parasite cultures added manually. Parasite survival was assessed by flow cytometry on an Intellicyt iQue3 (Essen Bioscience), with 1× SYBR Green I (Invitrogen) and 200 nM MitoTracker Deep Red FM (Invitrogen) used to stain the nucleus and the mitochondria in live parasites, respectively. The gating strategy used to quantify parasite survival, performed using FlowJo version 10 (FlowJo LLC.), is illustrated in Supplementary Fig. 9. IC50 and IC90 values were calculated by linear interpolation of the dose-response data.

NF54^G358S-1 parasites = conditions: for FC (IC50) / FC (IC90): NF54G358S-1 compared to NF54WT
Method: as §1

NF54^G358S-2 parasites = conditions: for FC (IC50) / FC (IC90): NF54G358S-2 compared to NF54WT
Method: as §1

[1] = NF54CTL parasites, individual experiments, read-out: IC90 values
[2] = Plasmodium falciparum, NF54, NF54CTL parasites, individual experiments, read-out: IC90 values
[3] = Plasmodium falciparum, NF54, NF54CTL parasites, mean of the experiments, read-out: IC90 values, MEAN
[4] = Plasmodium falciparum, NF54, NF54CTL, 10% human serum, read-out: IC50 ± SEM
[5] = Plasmodium falciparum, NF54, NF54CTL, MEAN, source data of Fig. 2, read-out: IC50 values, MEAN
[6] = NF54G358S-1, single experiments, source data of Fig. 2 (nM in Supplementary Table 5), read-out: IC50 values
[7] = NF54G358S-1 parasites, individual experiments, read-out: IC90 values
[8] = Plasmodium falciparum, NF54, NF54G358S-1, 10% human serum, read-out: IC50 ± SEM
[9] = Plasmodium falciparum, NF54, NF54G358S-1, 10% human serum, read-out: IC90 ± SEM
[10] = Plasmodium falciparum, NF54, NF54G358S-1, MEAN, source data of Fig. 2, read-out: IC50 values, MEAN
[11] = Plasmodium falciparum, NF54, NF54G358S-1, single experiments, source data of Fig. 2 (nM in Supplementary Table 5), read-out: IC50 values
[12] = Plasmodium falciparum, NF54, NF54G358S-1 parasites, individual experiments, read-out: IC90 values
[13] = Plasmodium falciparum, NF54, NF54G358S-1 parasites, mean of the experiments, read-out: IC90 values, MEAN
[14] = NF54G358S-2, single experiments, source data of Fig. 2 (nM in Supplementary Table 5), read-out: IC50 values
[15] = NF54G358S-2 parasites, individual experiments, read-out: IC90 values
[16] = Plasmodium falciparum, NF54, NF54G358S-2, 10% human serum, read-out: IC90 ± SEM
[17] = Plasmodium falciparum, NF54, NF54G358S-2, MEAN, source data of Fig. 2, read-out: IC50 values, MEAN
[18] = Plasmodium falciparum, NF54, NF54G358S-2, single experiments, source data of Fig. 2 (nM in Supplementary Table 5), read-out: IC50 values
[19] = Plasmodium falciparum, NF54, NF54G358S-2 parasites, individual experiments, read-out: IC90 values
[20] = Plasmodium falciparum, NF54, NF54G358S-2 parasites, mean of the experiments, read-out: IC90 values, MEAN
[21] = Plasmodium falciparum, NF54, NF54G358S-2, 10% human serum, read-out: IC50 ± SEM

Structure (SMILES): C[C@H]1Cc2c([nH]c3cc(Cl)c(F)cc23)[C@@]2(N1)C(=O)Nc1ccc(Cl)cc12 [Cipargamin]
- FC (IC50) (NF54^CTL parasites): 1.0 fold
- FC (IC90) (NF54^CTL parasites): 1.0 fold
- IC90 (NF54^CTL parasites; [1]): 3.6 nM and 3.4 nM
- IC90 (NF54^CTL parasites; [2]): 4.1 nM
- IC90 (NF54^CTL parasites; [3]): 3.7 nM
- IC50 (NF54^CTL parasites; [4]): 2.6 ± 0.1 nM
- IC50 (NF54^CTL parasites; [5]): 2.55 nM
- IC50 (NF54^G358S-1 parasites; [6]): 2030 nM and 1970 nM and 2280 nM
- FC (IC50) (NF54^G358S-1 parasites): 768.6 fold
- FC (IC90) (NF54^G358S-1 parasites): 910.8 fold
- IC90 (NF54^G358S-1 parasites; [7]): 3.46 µM (2×) and 3.39 µM
- IC50 (NF54^G358S-1 parasites; [8]): 2030 ± 93.9 nM
- IC90 (NF54^G358S-1 parasites; [9]): 3461 ± 30.7 nM
- IC50 (NF54^G358S-1 parasites; [10]): 2030 nM
- IC50 (NF54^G358S-1 parasites; [11]): 1840 nM
- IC90 (NF54^G358S-1 parasites; [12]): 3540 nM
- IC90 (NF54^G358S-1 parasites; [13]): 3460 nM
- IC50 (NF54^G358S-2 parasites; [14]): 1750 nM and 2010 nM and 2430 nM
- FC (IC50) (NF54^G358S-2 parasites): 751.9 fold
- FC (IC90) (NF54^G358S-2 parasites): 903.4 fold
- IC90 (NF54^G358S-2 parasites; [15]): 3350 nM and 3420 nM and 3530 nM
- IC90 (NF54^G358S-2 parasites; [16]): 3430 ± 36.7 nM
- IC50 (NF54^G358S-2 parasites; [17]): 1980 nM
- IC50 (NF54^G358S-2 parasites; [18]): 1750 nM
- IC90 (NF54^G358S-2 parasites; [19]): 3430 nM
- IC90 (NF54^G358S-2 parasites; [20]): 3430 nM

Structure (SMILES): C[C@H]1[C@@H](O)O[C@@H]2O[C@@]3(C)CC[C@H]4[C@H](C)CC[C@@H]1[C@@]24OO3 [Dihydroartemisinin]
- FC (IC50) (NF54^CTL parasites): 1.1 fold
- FC (IC90) (NF54^CTL parasites): 1.2 fold
- IC90 (NF54^CTL parasites; [1]): 3 nM and 2.45 nM and 2.56 nM
- IC90 (NF54^CTL parasites; [2]): 2.88 nM
- IC90 (NF54^CTL parasites; [3]): 2.7 nM
- IC50 (NF54^CTL parasites; [4]): 0.9 ± 0.1 nM
- IC50 (NF54^CTL parasites; Plasmodium falciparum, NF54, read-out: Dihydroartemisinin IC50 values, NF54CTL, MEAN): 0.89 nM
- IC50 (NF54^CTL parasites; read-out: Dihydroartemisinin IC50 values, NF54CTL, single experiments): 0.98 nM and 0.8 nM and 0.7 nM
- FC (IC50) (NF54^G358S-1 parasites): 1.1 fold
- FC (IC90) (NF54^G358S-1 parasites): 1.1 fold
- IC90 (NF54^G358S-1 parasites; [7]): 2.78 nM and 2.34 nM and 2.64 nM
- IC90 (NF54^G358S-1 parasites; [12]): 2.68 nM
- IC90 (NF54^G358S-1 parasites; [13]): 2.6 nM
- IC50 (NF54^G358S-1 parasites; Plasmodium falciparum, NF54, read-out: Dihydroartemisinin IC50 values, NF54G358S-1, MEAN): 0.9 nM
- IC50 (NF54^G358S-1 parasites; read-out: Dihydroartemisinin IC50 values, NF54G358S-1, single experiments): 0.76 nM and 0.77 nM
- FC (IC50) (NF54^G358S-2 parasites): 1.1 fold
- FC (IC90) (NF54^G358S-2 parasites): 1.2 fold
- IC90 (NF54^G358S-2 parasites; [15]): 2.9 nM and 2.51 nM and 2.93 nM
- IC50 (NF54^G358S-2 parasites; [21]): 0.9 ± 0.1 nM
- IC90 (NF54^G358S-2 parasites; [19]): 2.84 nM
- IC90 (NF54^G358S-2 parasites; [20]): 2.8 nM
- IC50 (NF54^G358S-2 parasites; Plasmodium falciparum, NF54, read-out: Dihydroartemisinin IC50 values, NF54G358S-2, MEAN): 0.91 nM
- IC50 (NF54^G358S-2 parasites; read-out: Dihydroartemisinin IC50 values, NF54G358S-2, single experiments): 0.73 nM

Structure (SMILES): N#Cc1cc(NC(=O)[C@H]2c3ccccc3C(=O)N(CC(F)(F)F)[C@@H]2c2cccnc2)ccc1F [(+)-SJ733]
- FC (IC50) (NF54^CTL parasites): 0.9 fold
- FC (IC90) (NF54^CTL parasites): 0.9 fold
- IC90 (NF54^CTL parasites; [1]): 130 nM and 156 nM and 157 nM
- IC50 (NF54^CTL parasites; NF54CTL, single experiments, source data of Fig. 2 (nM in Supplementary Table 5), read-out: IC50 values): 85.7 nM and 81.4 nM and 82.7 nM
- IC90 (NF54^CTL parasites; [3]): 150 nM
- IC50 (NF54^CTL parasites; [5]): 84.8 nM
- IC50 (NF54^CTL parasites; Plasmodium falciparum, NF54, NF54CTL, single experiments, source data of Fig. 2 (nM in Supplementary Table 5), read-out: IC50 values): 89.3 nM
- IC50 (NF54^G358S-1 parasites; [6]): 12600 nM and 15300 nM and 15000 nM
- FC (IC50) (NF54^G358S-1 parasites): 148.8 fold
- FC (IC90) (NF54^G358S-1 parasites): 155.4 fold
- IC90 (NF54^G358S-1 parasites; [7]): 25900 nM and 24200 nM and 24300 nM
- IC50 (NF54^G358S-1 parasites; [8]): 14000 ± 683 nM
- IC90 (NF54^G358S-1 parasites; [9]): 25400 ± 726 nM
- IC50 (NF54^G358S-1 parasites; [10]): 14000 nM
- IC50 (NF54^G358S-1 parasites; [11]): 13000 nM
- IC90 (NF54^G358S-1 parasites; [12]): 27200 nM
- IC90 (NF54^G358S-1 parasites; [13]): 25400 nM
- IC50 (NF54^G358S-2 parasites; [14]): 11600 nM and 13800 nM and 13500 nM
- FC (IC50) (NF54^G358S-2 parasites): 138.1 fold
- FC (IC90) (NF54^G358S-2 parasites): 152.9 fold
- IC90 (NF54^G358S-2 parasites; [15]): 25500 nM and 23300 nM and 23800 nM
- IC50 (NF54^G358S-2 parasites; [21]): 13000 ± 480 nM
- IC90 (NF54^G358S-2 parasites; [16]): 25000 ± 892 nM
- IC50 (NF54^G358S-2 parasites; [17]): 13000 nM
- IC50 (NF54^G358S-2 parasites; [18]): 12900 nM
- IC90 (NF54^G358S-2 parasites; [19]): 27300 nM
- IC90 (NF54^G358S-2 parasites; [20]): 25000 nM
